# Measurements reported in patent publication US9856232B1, “Dihydropyrimidinone derivatives” (KING SAUD UNIVERSITY, priority 2017, dated 2018).
# Marks after values point to notes of the source that are not given here.
# Columns and labels:
# Format in all cases: in vivo, Albino Wistar rats
# [1] = system: Gastric lesions induced by necrotizing agents (80% ethanol, 0.2 mol/L NaOH or 25% NaCl); assay: Gastric lesions induced by necrotizing agents (cytoprotection); conditions: i.p, 30 min before necrotizing agent, mean ± SE
# [2] = system: Hypothermic restraint stress-induced intraluminal bleeding and gastric lesion; assay: Hypothermic restraint stress-induced ulcers; design: Gastric Lesion Ulcer Index: scale not given here; conditions: hypothermic restraint 3 h, mean ± SE
# [3] = system: gastric mucosal non-protein sulfhydryls, induced by 80% ethanol; assay: Estimation of non-protein sulfhydryls (NP-SH); conditions: stomach tissue, 80% ethanol-treated rats, mean ± SE
# Procedure: (§1) Albino Wistar rats of either sex, approximately the same age, weighing 150 to 200 g and fed on a diet of standard chow were used in this study. They were randomly divided into experimental groups of six rats each. Compounds (N-1 to N-18) 12.5, 25, and 50 mg/kg were given orally in the anti-ulcer studies and intraperitoneally for gastric secretion evaluation. The rats were sacrificed, and the stomachs removed and opened along the greater curvature, After washing with saline, the gastric lesions were quantified by a person unaware of the treatments. The animal study protocol was approved by the Research and Ethics Committee of the Experimental Animal Care Society, College of Pharmacy, King Saud University, Riyadh, Saudi Arabia.
# Estimation of non-protein sulfhydryls (NP_SH): Gastric mucosal non-protein sulfhydryls were measured according to the method. The glandular part of the stomach was homogenized in ice-cold 0.02 mmol/L ethylenediaminetetraacetic acid (EDTA). Aliquots of 5 mL of the homogenates were mixed in 15 mL test tubes with 4 mL of distilled water and 1 mL of 50% trichloroacetic acid (TCA). The tubes were shaken intermittently for 10 minutes and centrifuged at 3000 r/min. Two milliliters of supernatant were mixed with 4 mL of 0.4 mol/L Tris buffer at pH 8.9. Then 0.1 ML of 5, 5′-dithio-bis (2-nitrobenzoic acid) (DTNB) was added and the sample was shaken. The absorbance was measured within 5 minutes of DTNB addition at 412 nm against a reagent blank.
# [4] = system: Gastric lesions induced by 80% ethanol; assay: Gastric lesions induced by ethanol (ulcer index by severity scores); conditions: Rattus norvegicus, po, vs 80% EtOH group, read-out: Gastric lesions induced by 80% ethanol, % change; for inhibition in vivo at 12.5 mg/kg: compound 12.5 mg/kg; for inhibition in vivo at 25 mg/kg: compound 25 mg/kg; for inhibition in vivo at 50 mg/kg: compound 50 mg/kg
# Procedure: as §1
# Gastric lesions induced by ethanol: Albino rats of either sex weighing between (150-200 g) are divided into groups. The animals were fasted for 24 hours with free access to water. Animals were given test drugs or standard drug. One hour later 1 mL/200 gm of 80% ethanol is administered orally to each animal. The animals were anaesthetized 1 hour latter with anesthetic ether and stomach was incised along the greater curvature and ulceration was scored. The number of ulcers and the length of each ulcer were measured. Ulcer index was calculated using severity scores. The mucosal damage was examined by means of a magnifying glass. For each stomach the mucosal damage was assessed according to the following scoring system: 0.5 redness; 1.0 spot ulcers; 1.5 hemorrhagic streaks; 2.0 ulcers<3, but≦5; 3.0 ulcers>5. Table 1 provides the effect of compounds on gastric lesions induced by 80% ethanol (mean±SE).
# [5] = system: gastric secretion in pylorus-ligated Shay rats; assay: Pylorus-ligated rats: gastric secretion, acidity and lesion index; design: Ulcer Index, pylorus-ligated Shay rats: scale not given here; conditions: i.p., 6 h after pylorus ligation, mean ± SE
# Procedure: as §1
# Pylorus-ligated rats: Rats were fasted for 36 hours with access to water ad libitum before pylorus ligation under ether anesthesia was carried out. Care was taken not to cause bleeding or to occlude blood vessels. Compounds (N-3, N-8, N-11, and N-15) were administered intraperitoneally immediately after pylorus ligation. The rats were sacrificed at 6 hours after pylorus ligation. The stomachs were removed, the contents were collected, volumes measured, centrifuged and analyzed for tritratable acidity against […], NaOH at pH 7.0. Table 5 provides the effect of compounds on gastric secretion, acidity, and gastric lesion index in pylorus-ligated Shay rats (mean±SE).
smiles,measurement,setting,value
"O=C1NC=C(C(=O)c2ccc(N3CCCCC3)cc2)C(c2ccc([N+](=O)[O-])cc2)N1 (stereo not drawn) [Compound N-3, 4-(4-Nitrophenyl)-5-[4-(piperidin-1-yl)benzoyl]-3,4-dihyropyrimidin-2(1H)-one]","Ulcer Index, 0.2 mol/L NaOH",[1]; 12.5 mg/kg,4.50 ± 0.22.***
same,"Ulcer Index, 25% NaCl",[1]; 12.5 mg/kg,5.16 ± 0.47
same,"Ulcer Index, 80% EtOH",[1]; 12.5 mg/kg,6.83 ± 0.30
same,"Ulcer Index, 0.2 mol/L NaOH",[1]; 25 mg/kg,2.66 ± 0.33
same,"Ulcer Index, 25% NaCl",[1]; 25 mg/kg,2.83 ± 0.30
same,"Ulcer Index, 80% EtOH",[1]; 25 mg/kg,4.16 ± 0.30
same,"Ulcer Index, 0.2 mol/L NaOH",[1]; 50 mg/kg,1.83 ± 0.40
same,"Ulcer Index, 25% NaCl",[1]; 50 mg/kg,1.66 ± 0.33
same,"Ulcer Index, 80% EtOH",[1]; 50 mg/kg,3.00 ± 0.36
same,Gastric Lesion Ulcer Index,[2]; 12.5 mg/kg,24.16 ± 1.70
same,Intraluminal Bleeding Score,[2]; 12.5 mg/kg,2.83 ± 0.30
same,Gastric Lesion Ulcer Index,[2]; 25 mg/kg,17.66 ± 0.76
same,Intraluminal Bleeding Score,[2]; 25 mg/kg,1.50 ± 0.22
same,Gastric Lesion Ulcer Index,[2]; 50 mg/kg,13.83 ± 0.60
same,Intraluminal Bleeding Score,[2]; 50 mg/kg,1.16 ± 0.30
same,NP-SH,[3]; dose 12.5,3.15 ± 0.20^b nmol/g
same,NP-SH,[3]; dose 25,4.23 ± 0.23**^b nmol/g
same,NP-SH,[3]; dose 50,4.56 ± 0.17***^b nmol/g
same,inhibition in vivo at 12.5 mg/kg,[4],33.3%
same,inhibition in vivo at 25 mg/kg,[4],53.3%
same,inhibition in vivo at 50 mg/kg,[4],60%
same,Titratable Acidity,[5]; 12.5 mg/kg,153.88 ± 5.40 mEg/L
same,"Ulcer Index, pylorus-ligated Shay rats",[5]; 12.5 mg/kg,2.33 ± 0.33
same,Volume of Gastric Content,[5]; 12.5 mg/kg,9.03 ± 0.24 mL
same,Titratable Acidity,[5]; 25 mg/kg,97.77 ± 2.93 mEg/L
same,"Ulcer Index, pylorus-ligated Shay rats",[5]; 25 mg/kg,1.83 ± 0.304
same,Volume of Gastric Content,[5]; 25 mg/kg,6.31 ± 0.25 mL
same,Titratable Acidity,[5]; 50 mg/kg,84.84 ± 2.38 mEg/L
same,"Ulcer Index, pylorus-ligated Shay rats",[5]; 50 mg/kg,1.16 ± 0.30
same,Volume of Gastric Content,[5]; 50 mg/kg,4.63 ± 0.22 mL
"COc1ccccc1C1NC(=O)NC=C1C(=O)c1ccc(N2CCCCC2)cc1 (stereo not drawn) [Compound N-8, 4-(2-Methoxyphenyl)-5-[4-(piperidin-1-yl)benzoyl]-3,4-dihydropyrimidin-2(1H)-one]","Ulcer Index, 0.2 mol/L NaOH",[1]; 12.5 mg/kg,6.66 ± 0.33
same,"Ulcer Index, 25% NaCl",[1]; 12.5 mg/kg,6.00 ± 0.25
same,"Ulcer Index, 80% EtOH",[1]; 12.5 mg/kg,7.00 ± 0.36
same,"Ulcer Index, 0.2 mol/L NaOH",[1]; 25 mg/kg,5.33 ± 0.71
same,"Ulcer Index, 25% NaCl",[1]; 25 mg/kg,5.00 ± 0.44
same,"Ulcer Index, 80% EtOH",[1]; 25 mg/kg,6.50 ± 0.42
same,"Ulcer Index, 0.2 mol/L NaOH",[1]; 50 mg/kg,3.83 ± 0.30
same,"Ulcer Index, 25% NaCl",[1]; 50 mg/kg,3.33 ± 0.30
same,"Ulcer Index, 80% EtOH",[1]; 50 mg/kg,5.83 ± 0.30
same,Gastric Lesion Ulcer Index,[2]; 12.5 mg/kg,29.83 ± 1.50
same,Intraluminal Bleeding Score,[2]; 12.5 mg/kg,3.50 ± 0.42
same,Gastric Lesion Ulcer Index,[2]; 25 mg/kg,27.66 ± 1.60
same,Intraluminal Bleeding Score,[2]; 25 mg/kg,3.33 ± 0.21
same,Gastric Lesion Ulcer Index,[2]; 50 mg/kg,18.66 ± 0.55
same,Intraluminal Bleeding Score,[2]; 50 mg/kg,2.50 ± 0.42
same,NP-SH,[3]; dose 12.5,3.49 ± 0.16^b nmol/g
same,NP-SH,[3]; dose 25,3.61 ± 0.12^b nmol/g
same,NP-SH,[3]; dose 50,4.61 ± 0.27**^b nmol/g
same,inhibition in vivo at 12.5 mg/kg,[4],33.3%
same,inhibition in vivo at 25 mg/kg,[4],50%
same,inhibition in vivo at 50 mg/kg,[4],53.3%
same,Titratable Acidity,[5]; 12.5 mg/kg,161.11 ± 4.36 mEg/L
same,"Ulcer Index, pylorus-ligated Shay rats",[5]; 12.5 mg/kg,3.16 ± 0.30
same,Volume of Gastric Content,[5]; 12.5 mg/kg,10.50 ± 0.34 mL
same,Titratable Acidity,[5]; 25 mg/kg,133.33 ± 3.22 mEg/L
same,"Ulcer Index, pylorus-ligated Shay rats",[5]; 25 mg/kg,2.50 ± 0.22
same,Volume of Gastric Content,[5]; 25 mg/kg,9.36 ± 1.22 mL
same,Titratable Acidity,[5]; 50 mg/kg,115.00 ± 5.75 mEg/L
same,"Ulcer Index, pylorus-ligated Shay rats",[5]; 50 mg/kg,2.00 ± 0.13
same,Volume of Gastric Content,[5]; 50 mg/kg,6.46 ± 0.16 mL
"COc1ccc(C2NC(=O)NC=C2C(=O)c2ccc(N3CCCCC3)cc2)c(OC)c1OC (stereo not drawn) [Compound N-15, 4-(2,3,4-Trimethoxyphenyl)-5-[4-(piperidin-1-yl)benzoyl]-3,4-dihydropyrimidin-2(1H)-one]","Ulcer Index, 0.2 mol/L NaOH",[1]; 12.5 mg/kg,3.50 ± 0.22
same,"Ulcer Index, 25% NaCl",[1]; 12.5 mg/kg,3.66 ± 0.33
same,"Ulcer Index, 80% EtOH",[1]; 12.5 mg/kg,4.66 ± 0.33
same,"Ulcer Index, 0.2 mol/L NaOH",[1]; 25 mg/kg,2.16 ± 0.30
same,"Ulcer Index, 25% NaCl",[1]; 25 mg/kg,2.66 ± 0.33
same,"Ulcer Index, 80% EtOH",[1]; 25 mg/kg,2.66 ± 0.33
same,"Ulcer Index, 0.2 mol/L NaOH",[1]; 50 mg/kg,1.33 ± 0.42
same,"Ulcer Index, 25% NaCl",[1]; 50 mg/kg,1.66 ± 0.33
same,"Ulcer Index, 80% EtOH",[1]; 50 mg/kg,2.16 ± 0.30
same,Gastric Lesion Ulcer Index,[2]; 12.5 mg/kg,25.66 ± 1.08
same,Intraluminal Bleeding Score,[2]; 12.5 mg/kg,2.16 ± 0.30
same,Gastric Lesion Ulcer Index,[2]; 25 mg/kg,16.66 ± 0.33
same,Intraluminal Bleeding Score,[2]; 25 mg/kg,1.66 ± 0.21
same,Gastric Lesion Ulcer Index,[2]; 50 mg/kg,12.33 ± 0.84
same,Intraluminal Bleeding Score,[2]; 50 mg/kg,1.33 ± 0.33
same,NP-SH,[3]; dose 12.5,3.38 ± 0.07^b nmol/g
same,NP-SH,[3]; dose 25,4.29 ± 0.24**^b nmol/g
same,NP-SH,[3]; dose 50,4.92 ± 0.30***^b nmol/g
same,inhibition in vivo at 12.5 mg/kg,[4],35.4%
same,inhibition in vivo at 25 mg/kg,[4],54.8%
same,inhibition in vivo at 50 mg/kg,[4],67.7%
same,Titratable Acidity,[5]; 12.5 mg/kg,116.11 ± 2.64 mEg/L
same,"Ulcer Index, pylorus-ligated Shay rats",[5]; 12.5 mg/kg,1.83 ± 0.304
same,Volume of Gastric Content,[5]; 12.5 mg/kg,6.68 ± 0.18 mL
same,Titratable Acidity,[5]; 25 mg/kg,86.11 ± 3.98 mEg/L
same,"Ulcer Index, pylorus-ligated Shay rats",[5]; 25 mg/kg,1.50 ± 0.22
same,Volume of Gastric Content,[5]; 25 mg/kg,5.50 ± 0.24 mL
same,Titratable Acidity,[5]; 50 mg/kg,73.33 ± 2.43 mEg/L
same,"Ulcer Index, pylorus-ligated Shay rats",[5]; 50 mg/kg,1.00 ± 0.36
same,Volume of Gastric Content,[5]; 50 mg/kg,4.76 ± 0.23 mL
